Measured values: the NIST ThermoML archive (doi:10.1021/je060271a)
Several values for one entry are separate records, joined by “and”; a condition that tells them apart may be missing. Equal entries are not always repeated.

Details: 303.16 K, Liquid, Vibrating tube method

CCCCCC(=O)OCC(COC(=O)CCCCC)(COC(=O)CCCCC)COC(=O)CCCCC [pentaerythritol tetrahexanoate]
Details	mass density
291.9 kPa	988.7 kg/m3
292.2 kPa	988.5 kg/m3
292.6 kPa	988.6 kg/m3
292.9 kPa	988.6 kg/m3
297.1 kPa	988.4 kg/m3
297.8 kPa	988.5 kg/m3
298.1 kPa	988.6 kg/m3
298.5 kPa	988.5 kg/m3
298.7 kPa	988.6 kg/m3
299.2 kPa	988.5 kg/m3
299.3 kPa	988.6 kg/m3
299.9 kPa	988.4 kg/m3 and 988.6 kg/m3
300.4 kPa	988.6 kg/m3
300.7 kPa	988.6 kg/m3
301.1 kPa	988.6 kg/m3
301.2 kPa	988.6 kg/m3
301.6 kPa	988.6 kg/m3
302 kPa	988.5 kg/m3
302.1 kPa	988.5 kg/m3
302.7 kPa	988.6 kg/m3
303 kPa	988.5 kg/m3
303.2 kPa	988.5 kg/m3
303.7 kPa	988.5 kg/m3
303.9 kPa	988.6 kg/m3
304.2 kPa	988.5 kg/m3
304.5 kPa	988.6 kg/m3
304.7 kPa	988.6 kg/m3
305.1 kPa	988.5 kg/m3
306.3 kPa	988.5 kg/m3
306.6 kPa	988.6 kg/m3
307 kPa	988.6 kg/m3
307.3 kPa	988.6 kg/m3
307.8 kPa	988.5 kg/m3
307.9 kPa	988.5 kg/m3
308.2 kPa	988.5 kg/m3
308.7 kPa	988.6 kg/m3
309.1 kPa	988.5 kg/m3
309.4 kPa	988.6 kg/m3
309.8 kPa	988.5 kg/m3
310.1 kPa	988.5 kg/m3
310.8 kPa	988.5 kg/m3
311 kPa	988.5 kg/m3
311.3 kPa	988.6 kg/m3
311.7 kPa	988.6 kg/m3
311.9 kPa	988.5 kg/m3
312.2 kPa	988.6 kg/m3
312.5 kPa	988.6 kg/m3
313.6 kPa	988.6 kg/m3
314.6 kPa	988.6 kg/m3
315.8 kPa	988.6 kg/m3
316.7 kPa	988.5 kg/m3
317.1 kPa	988.4 kg/m3
317.2 kPa	988.6 kg/m3
317.4 kPa	988.5 kg/m3
317.9 kPa	988.5 kg/m3
318.1 kPa	988.6 kg/m3
318.5 kPa	988.6 kg/m3
318.6 kPa	988.6 kg/m3
318.8 kPa	988.5 kg/m3
319 kPa	988.5 kg/m3
319.3 kPa	988.5 kg/m3
319.5 kPa	988.5 kg/m3
319.8 kPa	988.5 kg/m3
320.4 kPa	988.5 kg/m3
320.9 kPa	988.5 kg/m3
321.2 kPa	988.5 kg/m3
321.9 kPa	988.6 kg/m3
322.3 kPa	988.6 kg/m3
324.7 kPa	988.5 kg/m3
325.6 kPa	988.6 kg/m3
326.1 kPa	988.6 kg/m3
326.6 kPa	988.4 kg/m3 and 988.6 kg/m3
327 kPa	988.6 kg/m3
327.1 kPa	988.6 kg/m3
327.3 kPa	988.6 kg/m3
327.7 kPa	988.6 kg/m3
328.4 kPa	988.5 kg/m3
328.9 kPa	988.6 kg/m3
329.1 kPa	988.6 kg/m3
333.2 kPa	988.6 kg/m3
333.9 kPa	988.6 kg/m3
339.3 kPa	988.7 kg/m3
339.7 kPa	988.6 kg/m3
340.3 kPa	988.7 kg/m3
341 kPa	988.6 kg/m3
344.3 kPa	988.5 kg/m3
344.5 kPa	988.7 kg/m3
344.7 kPa	988.6 kg/m3
345.2 kPa	988.6 kg/m3
345.5 kPa	988.6 kg/m3
346.2 kPa	988.5 kg/m3
346.6 kPa	988.7 kg/m3
346.9 kPa	988.6 kg/m3
347.3 kPa	988.5 kg/m3
347.6 kPa	988.6 kg/m3
348.2 kPa	988.7 kg/m3
348.7 kPa	988.6 kg/m3
349.2 kPa	988.5 kg/m3 and 988.6 kg/m3
349.4 kPa	988.6 kg/m3
349.9 kPa	988.5 kg/m3
350.6 kPa	988.5 kg/m3
350.9 kPa	988.6 kg/m3
351.5 kPa	988.7 kg/m3 and 988.6 kg/m3
352 kPa	988.6 kg/m3
352.8 kPa	988.6 kg/m3
353.2 kPa	988.8 kg/m3 and 988.5 kg/m3
353.4 kPa	988.6 kg/m3
353.5 kPa	988.6 kg/m3
354.1 kPa	988.7 kg/m3
354.2 kPa	988.6 kg/m3
354.6 kPa	988.6 kg/m3
354.9 kPa	988.6 kg/m3
358.1 kPa	988.6 kg/m3
358.4 kPa	988.7 kg/m3
358.9 kPa	988.6 kg/m3
359.4 kPa	988.6 kg/m3
359.8 kPa	988.6 kg/m3
360.3 kPa	988.6 kg/m3 and 988.5 kg/m3
364.5 kPa	988.6 kg/m3
365 kPa	988.7 kg/m3
365.2 kPa	988.5 kg/m3
365.9 kPa	988.7 kg/m3
366.2 kPa	988.7 kg/m3
366.6 kPa	988.7 kg/m3
367.3 kPa	988.8 kg/m3
367.6 kPa	988.6 kg/m3
368 kPa	988.6 kg/m3
368.3 kPa	988.6 kg/m3
368.6 kPa	988.7 kg/m3
369.5 kPa	988.6 kg/m3
369.9 kPa	988.6 kg/m3
370 kPa	988.5 kg/m3
370.2 kPa	988.6 kg/m3
371.1 kPa	988.6 kg/m3
371.3 kPa	988.6 kg/m3
371.6 kPa	988.7 kg/m3
372.1 kPa	988.7 kg/m3
372.5 kPa	988.5 kg/m3
373 kPa	988.6 kg/m3
373.5 kPa	988.7 kg/m3
374.2 kPa	988.6 kg/m3
374.6 kPa	988.6 kg/m3
374.9 kPa	988.6 kg/m3
375.4 kPa	988.7 kg/m3
380.8 kPa	988.5 kg/m3
382.9 kPa	988.7 kg/m3
385.3 kPa	988.6 kg/m3
387.4 kPa	988.6 kg/m3
454.3 kPa	988.6 kg/m3
457.1 kPa	988.6 kg/m3
461.3 kPa	988.6 kg/m3
465.1 kPa	988.6 kg/m3
468 kPa	988.6 kg/m3
470.8 kPa	988.7 kg/m3
474.1 kPa	988.6 kg/m3
478 kPa	988.6 kg/m3
481.2 kPa	988.6 kg/m3
484.7 kPa	988.7 kg/m3
488.4 kPa	988.7 kg/m3
491.7 kPa	988.7 kg/m3
495.5 kPa	988.7 kg/m3
498.8 kPa	988.7 kg/m3
502.4 kPa	988.7 kg/m3
505.6 kPa	988.6 kg/m3
509.2 kPa	988.8 kg/m3
513.8 kPa	988.7 kg/m3
517.4 kPa	988.7 kg/m3
521.2 kPa	988.6 kg/m3
525.6 kPa	988.7 kg/m3
529.6 kPa	988.8 kg/m3
534.1 kPa	988.7 kg/m3
537.9 kPa	988.6 kg/m3
542.3 kPa	988.9 kg/m3
546.9 kPa	988.7 kg/m3
550.9 kPa	988.7 kg/m3
555.3 kPa	988.8 kg/m3
559.5 kPa	988.8 kg/m3
564.3 kPa	988.8 kg/m3
569 kPa	988.8 kg/m3
574.4 kPa	988.9 kg/m3
692 kPa	988.8 kg/m3
698.5 kPa	988.8 kg/m3
706.1 kPa	988.8 kg/m3
712.5 kPa	988.8 kg/m3
719.3 kPa	988.9 kg/m3
727 kPa	988.7 kg/m3
734.3 kPa	988.8 kg/m3
741.2 kPa	988.8 kg/m3
748.1 kPa	988.8 kg/m3
756.7 kPa	988.8 kg/m3
763.8 kPa	988.9 kg/m3
771.6 kPa	988.9 kg/m3
779.1 kPa	988.8 kg/m3
788.5 kPa	988.9 kg/m3
796.3 kPa	988.8 kg/m3
804.1 kPa	988.8 kg/m3
811.9 kPa	988.9 kg/m3
821.6 kPa	988.9 kg/m3
829.8 kPa	988.8 kg/m3
848 kPa	988.8 kg/m3
856.6 kPa	988.9 kg/m3
864.9 kPa	989 kg/m3
1404 kPa	989.4 kg/m3
1416.2 kPa	989.4 kg/m3
1431.1 kPa	989.2 kg/m3
1443.8 kPa	989.3 kg/m3
1456.5 kPa	989.3 kg/m3
1642.7 kPa	989.5 kg/m3
1657.5 kPa	989.4 kg/m3
1672.3 kPa	989.4 kg/m3
1686.8 kPa	989.3 kg/m3
1704.7 kPa	989.4 kg/m3
1818.6 kPa	989.6 kg/m3
1834.9 kPa	989.6 kg/m3
1940.6 kPa	989.6 kg/m3
1957.6 kPa	989.6 kg/m3
1975.3 kPa	989.7 kg/m3
1996.3 kPa	989.5 kg/m3
2014.2 kPa	989.6 kg/m3
2035.9 kPa	989.6 kg/m3
2053.6 kPa	989.7 kg/m3
2072.3 kPa	989.7 kg/m3
2129.6 kPa	989.6 kg/m3
2148.3 kPa	989.7 kg/m3
2190 kPa	989.9 kg/m3
2209.4 kPa	989.7 kg/m3
2272.4 kPa	989.7 kg/m3
4203.4 kPa	991.1 kg/m3
4236.8 kPa	991 kg/m3
4264.7 kPa	991.2 kg/m3
4292.6 kPa	991.1 kg/m3
4320.1 kPa	991.1 kg/m3
4352.9 kPa	991.2 kg/m3
4379.7 kPa	991.1 kg/m3
4406.5 kPa	991.2 kg/m3
4438.4 kPa	991.1 kg/m3
4464.5 kPa	991.2 kg/m3
4490.5 kPa	991.3 kg/m3
4516.1 kPa	991.2 kg/m3
4546.4 kPa	991.3 kg/m3
4570.9 kPa	991.3 kg/m3
4594.9 kPa	991.4 kg/m3
4622.1 kPa	991.2 kg/m3
4643.9 kPa	991.3 kg/m3
4664.2 kPa	991.3 kg/m3
4683 kPa	991.5 kg/m3
4704.7 kPa	991.4 kg/m3
4723 kPa	991.4 kg/m3
4740.8 kPa	991.3 kg/m3
4757.6 kPa	991.4 kg/m3
4774.9 kPa	991.4 kg/m3
4794.3 kPa	991.6 kg/m3
4810.9 kPa	991.4 kg/m3
4827 kPa	991.4 kg/m3
4842.8 kPa	991.5 kg/m3
4861.3 kPa	991.4 kg/m3
4908.5 kPa	991.5 kg/m3
5374.3 kPa	991.8 kg/m3
5390.7 kPa	991.8 kg/m3
5411 kPa	991.8 kg/m3
5427.2 kPa	991.8 kg/m3
5447.1 kPa	991.9 kg/m3
5464.4 kPa	991.8 kg/m3
5481.4 kPa	991.9 kg/m3
5498.1 kPa	991.8 kg/m3
5518.7 kPa	991.9 kg/m3
5591.9 kPa	992 kg/m3
5609.7 kPa	992 kg/m3
5627.2 kPa	991.9 kg/m3
5647.7 kPa	991.9 kg/m3
5665.4 kPa	992 kg/m3
5875.7 kPa	992.1 kg/m3
5894 kPa	992.1 kg/m3
5931.3 kPa	992.1 kg/m3
5953.6 kPa	992.2 kg/m3
5972 kPa	992.2 kg/m3
5990.6 kPa	992.2 kg/m3
6012.9 kPa	992.2 kg/m3
6031.6 kPa	992.2 kg/m3
6050.3 kPa	992.2 kg/m3
6072.9 kPa	992.2 kg/m3
6111.5 kPa	992.2 kg/m3
10602 kPa	995.1 kg/m3
10632 kPa	995.1 kg/m3
10660 kPa	995.1 kg/m3
10689 kPa	995 kg/m3
10724 kPa	995.1 kg/m3
10753 kPa	995.2 kg/m3
10782 kPa	995.1 kg/m3
